Values quoted from earlier work, collected in patent publication US20170196794A1, “Oral Composition” (Kao Corporation, priority 2014, published 2017).

Settings: 20° C.

Row | SMILES | solubility in water [% by mass]
1 | OC[C@@H](O)[C@@H](O)CO [erythritol] | 33
2 | OC[C@@H](O)[C@@H](O[C@H]1O[C@H](CO)[C@@H](O)[C@H](O)[C@H]1O)[C@H](O)[C@@H](O)CO [maltitol] | 60
3 | OC[C@@H](O)[C@H](O)[C@@H](O)CO [xylitol] | 66

More lines, now with the values ahead:

Row | solubility in water [% by mass] | SMILES
4 | 18 | OC[C@@H](O)[C@@H](O)[C@H](O)[C@H](O)CO [mannitol]
5 | 72 | OC[C@@H](O)[C@@H](O)[C@H](O)[C@@H](O)CO [sorbitol]
